Structures are written as SMILES.

The test system of experiment [1] is HCT116. In words: MTT cell viability assay, HCT116. Type of experiment: cell-based, human. Conditions: Homo sapiens, HCT-116; HCT116, 48 hrs. Here is the method: (§1) Human cervical cancer cell lines (HeLa, ME-180 and SiHa), brain tumor cell lines (U87MG, U373MG, U87MG EGFRvIII, T98G, A172 and LN229), lymphoid leukemia (MOLT-3, MOLT-4, REH and CEMC-7), myloid leukemia (K562), pancreatic cancer (MIAPaCa-2, AsPC-1, Panc-1 and Panc 10.05), lung cancer (A549) and colon cancer (HCT116 and SW480) cell lines from American Type Culture Collection, Manassas, Va., USA were grown in IMDM or RPMI (cell specific) Medium supplemented with 10% fetal bovine serum and 1% antibiotic-antimycotic. Cells were cultured in 37° C. in an atmosphere of 5% CO2.
(§2) Viability of cancer cell lines after treatment as at the indicated times was determined by MTT assay. Briefly, 10,000 cells were plated in triplicate in 96 well plates and incubated for 24 and 48 hours in complete media in presence of varying dose of mahanine (0-50 μM). 100 ug MTT was added in each well. Incubate the plate for 1-4 hours at 37° C. and humidified 5% CO2 atmosphere. Absorbance was recorded at 550 nm with 96 well plate readers.
Background: Tetrazolium dyes change colour on reduction, which living cells bring about.

For experiment [2], the system named is Hsp90 client proteins (Akt). In words: Western blot of Hsp90 client proteins. Conditions: cervical and pancreatic cancer cell lines, 24 hrs. The format is cell-based, human. Here is the method:
Different human cancer cells (1×10^6 cells) were incubated with complete medium alone or with different dose of Mahanine (10-20 μM) as indicated. Cells were detached using trypsin-EDTA solution. They were collected by centrifugation at 1500 g for 10 mins and lysed by sonication. Aliquots containing 60 μg total cellular protein were separated by 10% SDS-PAGE and transferred to nitrocellulose membrane (MILIPORE, Bedford, Mass., USA). Membrane was blocked with blocking buffer for 1 hour at room temperature and probed with desired primary antibody Hsp90, Hsp70, Hsp40, p23, HOP, Cdc37, B-Raf, Stat-3, Bcl-xl, Akt, PARP, β-actin (Cell signaling technology, USA) and caspase-3 (Santa Cruz, USA), caspase9, cytochrome c (cell signaling technology, USA) for overnight at 4° C. followed by HRP conjugated secondary antibody and detected by ECL. For the detection of association of the Hsp90-Cdc37, Hsp90-p23 and Hsp90-HOP, total cell lysate (400 μg) was treated with anti-Hsp-90 antibody (1:100 dilutions) and incubated overnight at 4° C. The chaperonic complex was resolved by SDS-PAGE (10%), transferred and probed separately with anti-Cdc37, anti-HOP, anti-p23 and anti-Hsp-90 antibodies. In the few immunoprecipitation experiments anti-Cdc37 used as precipitating antibody and Hsp90 was used as detection antibody. […]
For orientation: Immunoblotting shows a protein as a band on a membrane.

Experiment [3] concerns the target human Hsp90. The experiment can be described thus: Surface plasmon resonance binding to immobilized Hsp90. Conditions: SPR, Hsp90-mahanine complex. The protocol:
The portion of the sensorgram which corresponds to the dissociation of mahanine from Hsp90 was analyzed by the BIA evaluation program 2.1 to obtain the dissociation rate (kd) (FIG. 22). The experimental data fits well with the single exponential kinetic model used. Some experiments were repeated at a flow rate of 5 μl/min to check the effect of possible rebinding. Rebinding and mass transfer limitation was also checked by the repetition of the experiments at lower levels of immobilized Hsp90. […] Using the corresponding kd values nonlinear curve fitting of the association phase of the corresponding sensorgram was carried out with the BIA evaluation program 2.1 to obtain association rate (ka).
All the solutions were passed through a 0.22 micron Millipore filter and de-gassed in vacuum for 6-7 minutes at room temperature. For coupling Hsp90 to the SPR sensor chips, 400 μl (50 μg/ml) human Hsp90 was dialysed over night at 4° C. against coupling buffer containing 5 mM Na2HPO4, pH 7.4 and 150 mM NaCl to remove Tris, which interferes with the coupling. Before coupling, carboxymethyl-dextran sensor chips (CM5, Lot 1170768, Biacore, Upsala Sweden) were incubated with running buffer containing 10 mM HEPES, pH 7.4, 0.15 M KCl and 0.001% Tween-20 to prevent the unspecific binding of proteins to the capillaries in a BIAcore apparatus for 10 minutes at 25° C. at a flow rate of 5 μl/min. […]
In general terms: In SPR one partner is held on a chip, and binding of the other changes the refractive index at the surface.

For experiment [4], the system named is HeLa. In words: MTT cell viability assay, HeLa. Type of experiment: cell-based, human. The protocol:
as §1, §2

For orientation: IC50 means the concentration needed to halve the response being measured. Regarding `CC(C)=CCCC1(C)C=Cc2c(c(C)cc3c2[nH]c2cc(O)ccc23)O1` (centres unmarked) [Mahanine, mahanine], the IC50 in experiment [1] worked out at 13.5 ± 0.8 µM; in experiment [4] (48 hrs), 13.2 ± 1.1 µM; in experiment [4] (Homo sapiens, 48 h) it was 10.9 µM. In addition, the “dose enough to start significant downregulation of Akt level” value in experiment [2] turned out to be 15 µM. In addition, the “Dissociation constant (KD) (kd/ka)” value in experiment [3] was 4.99 µM.

The record behind these values is patent US8637679B2, “Process for the isolation of organic compounds useful for the treatment of cancer” (Council of Scientific and Industrial Research, priority 2011, dated 2014).
